Measured values from patent US20080214509A1, “Methods for enhancing the efficacy of vascular disrupting agents” (priority 2007, published 2008).

Columns and labels:
SDF-1 [1] = test: Clinical data from cancer patients with advanced solid tumors treated with a VDA; type: in vivo, human; details: 12 cancer patients with advanced solid tumors; 4 hours after treatment
SDF-1 [2] = test: Plasma SDF-1 by ELISA in nude mice after VDA treatment; type: in vivo; details: both tumor-free and 500 mm^3 MeWo tumor-bearing nude mice; 4 hours after treatment
Method: To investigate the possibility that systemic induction of SDF-1 is involved in the acute mobilization of CEPs by VDA treatment, plasma from non-tumor or 500 mm^3 MeWo human melanoma bearing nude mice obtained 4 hours after treatment with CA1P was analyzed for human and mouse SDF-1 using specific ELISAs. From this analysis, it was determined that an acute 2 fold increase in SDF-1 occurs in both tumor-free and tumor-bearing nude mice following CA1P treatment. […] Thus, there is a rapid host proangiogenic reaction in response to VDA treatment similar to that observed in mice.

CEPs = test: Circulating endothelial progenitor cell (CEP) levels in peripheral blood by flow cytometry, non-tumor bearing mice; type: in vivo; details: non-tumor bearing Balb/c mice; AMD-3100 5 mg/kg, CA1P 100 mg/kg; 4 hours or 24 hours post-treatment; FIG. 1
Method: Non-tumor bearing Balb/c mice (8-10 weeks old) were treated with one of the following agents: (i) 5 mg/kg of AMD-3100, a specific CXCR-4 antagonist; (ii) 100 mg/kg of CA1P, a VDA; or (iii) a combination of AMD-3100 and CA1P. At either 4 hours or 24 hours post-treatment, mice were bled from the retro-orbital sinus to evaluate levels of CEPs by flow cytometry.

[3] = test system: MeWo human melanoma cells; test: MeWo melanoma tumors (500 mm^3) in nude mice: SDF-1/CXCR4 staining, necrosis, hypoxia, perfusion; type: in vivo; details: day 4
Method: MeWo human melanoma cells were implanted subdermally in nude mice. When tumors reached 500 mm^3, treatment with CA1P, AMD-3100 or the combination of the two drugs was initiated. CA1P was given as a single injection and AMD-3100 was given in a concentration of 5 mg/kg for 3 sequential days. On day 4, mice were sacrificed and tumors harvested for evaluation of the expression of human SDF-1 and mouse CXCR4, as well as tumor necrosis, hypoxia and vessel perfusion.
Longitudinal tumor sections were stained for either SDF-1 or mouse CXCR4 expression.
FIG. 2 provides a statistical quantification of the relative necrosis area in all tumors from treated and untreated mice. Hypoxic tumor area and perfused tumor area was also measured for all treated and untreated tumors using pimonidazole and Hoechst staining respectively (see FIG. 3).

[4] = test system: Lewis-Lung Carcinoma (LLC) cells; test: Lewis-Lung Carcinoma tumors in irradiated mice transplanted with GFP+ bone marrow: necrosis and bone marrow cell incorporation; type: in vivo; details: LLC tumors in C57Bl mice with GFP+ bone marrow; day 4
Method: To assess the incorporation of bone marrow proangiogenic cells to the tumor site, Lewis-Lung Carcinoma (LLC) cells were implanted into the flanks of lethally irradiated C57Bl mice that were previously transplanted with GFP+bone marrow tagged cells. When tumors reached 500 mm^3, treatment with CA1P, AMD-3100 or the combination of the two was initiated. AMD-3100 was given in a concentration of 5 mg/kg for 3 sequential days. On day 4, mice were sacrificed and tumors removed for the evaluation of bone marrow derived cell (GFP+ cells) invasion and incorporation into tumor blood vessels (CD31+ cells). Tumors were also evaluated for necrosis by green fluorescence, as necrotic tissue is auto-fluorescent under GFP (fluorescent) channel.

[5] = MeWo tumors, CA1P single injection, AMD-3100 5 mg/kg for 3 sequential days

COc1ccc(/C=C\c2cc(OC)c(OC)c(OC)c2)cc1OP(=O)(O)O [CA4P, combretastatin A-4 phosphate]
circulating SDF-1 plasma levels (SDF-1 [1]): substantially increased
number of CD133 and CD34 positive cells (SDF-1 [1]): substantially increased

COc1cc(/C=C\c2ccc(OC)c(OP(=O)(O)O)c2OP(=O)(O)O)cc(OC)c1OC [CA1P, combretastatin A-1 diphosphate]
increase in plasma SDF-1 (SDF-1 [2]): 2 fold
CEP levels in peripheral blood (CEPs): rapid and significant increases
human SDF-1 levels in tumors ([3]; MeWo tumor sections): upregulation
invasion of mouse CXCR4+ cells to the tumor site ([3]; MeWo tumor sections): invasion of mouse CXCR4+ cells to the tumor site
tumor hypoxia (pimonidazole staining) [3, 5]: ~12%
tumor necrosis (area of total tumor area) [3, 5]: ~30%
tumor perfusion (Hoechst staining) [3, 5]: ~7%
bone marrow derived (GFP+) cell homing to tumor site and incorporation into tumor blood vessels (CD31+) [4]: recruits bone marrow derived proangiogenic cells to tumors

c1cc(CN2CCCNCCNCCCNCC2)ccc1CN1CCCNCCNCCCNCC1 [AMD-3100, 1,1′-[1,4-phenylenebis(methylene)]-bis-1,4,8,11-tetra-azacyclotetradecane]
CEP levels in peripheral blood (CEPs): rapid and significant increases
